In patent US12692238B2, “Substituted pyridazinone herbicides” (FMC CORPORATION, priority 2020, dated 2026):

How the values were obtained:
Assay type in all cases: in vivo
[1] = test system: ryegrass, Italian (Italian ryegrass, Lolium multiflorum); experiment: Test A postemergence, ryegrass, Italian; details: 10 days
Procedure, shortened: (§1)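 Pre: soil-directed spray on seeded loam/sand pots. Post: spray on 2–10 cm seedlings, 1–2 leaves. Surfactant-containing solvent vehicle. Greenhouse 10 d; visual % control vs untreated.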

[2] = test system: barnyardgrass (Echinochloa crus-galli); experiment: Test B flooded paddy test, barnyardgrass; details: 250 g ai/ha, Flood; visually evaluated after 10 to 14 days
Procedure, shortened: (§2)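 Visual ratings (0 = no effect to 100 = complete control) were made versus controls 10 to 14 days after treatment. Compounds were added to the floodwater of pots flooded 3 cm above the soil surface when plants reached the 2-leaf stage.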

corn (Zea mays) [3] = experiment: Test A preemergence, corn; details: 0 to 100 scale, 10 days
Text: (§3) Seeds of plant species selected from barnyardgrass (Echinochloa crus-galli), blackgrass (Alopecurus myosuroides), corn (Zea mays), foxtail, giant (giant foxtail, Setaria faberi), foxtail, green (green foxtail, Setaria viridis), goosegrass (Eleusine indica), kochia (Bassia scoparia), oat, wild (wild oat, Avena fatua), palmer amaranth (pigweed, palmer, Amaranthus palmeri), redroot pigweed (Amaranthus retroflexus), ragweed (common ragweed, Ambrosia artemisiifolia), ryegrass, Italian (Italian ryegrass, Lolium multiflorum), and soybean (Glycine max) were planted into a blend of loam soil and sand and treated preemergence with a directed soil spray using test chemicals formulated in a non-phytotoxic solvent mixture which included a surfactant.
(§4) At the same time, plants selected from these crop and weed species and also wheat (Triticum aestivum), galium (catchweed bedstraw, Galium aparine) and horseweed (Erigeron canadensis) were planted in pots containing the same blend of loam soil and sand and treated with postemergence applications of test chemicals formulated in the same manner. Plants ranged in height from 2 to 10 cm and were in the one- to two-leaf stage for the postemergence treatment. Treated plants and untreated controls were maintained in a greenhouse for 10 days, after which time all treated plants were compared to untreated controls and visually evaluated for injury. Plant response ratings, summarized in Table A, are based on a 0 to 100 scale where 0 is no effect and 100 is complete control. A dash (-) response means no test result.

[4] = test system: galium (catchweed bedstraw, Galium aparine); experiment: Test A postemergence, galium; details: 10 days
Procedure, shortened: as §1

[5] = test system: palmer amaranth (pigweed, palmer, Amaranthus palmeri); experiment: Test A postemergence, palmer amaranth; details: 10 days
Text: as §3, §4

corn (Zea mays) [6] = experiment: Test A postemergence, corn; details: 10 days
Procedure, shortened: as §1

[7] = test system: oat, wild (wild oat, Avena fatua); experiment: Test A preemergence, oat, wild; details: 0 to 100 scale, 10 days
Text: as §3, §4

kochia (Bassia scoparia) [8] = experiment: Test A preemergence, kochia; details: 0 to 100 scale, 10 days
Procedure, shortened: as §1

[9] = test system: ragweed (common ragweed, Ambrosia artemisiifolia); experiment: Test A preemergence, ragweed; details: 0 to 100 scale, 10 days
Procedure, shortened: as §1

[10] = test system: foxtail, giant (giant foxtail, Setaria faberi); experiment: Test A postemergence, foxtail, giant; details: 10 days
Procedure, shortened: as §1

[11] = test system: ragweed (common ragweed, Ambrosia artemisiifolia); experiment: Test A postemergence, ragweed; details: 10 days
Procedure, shortened: as §1

[12] = test system: wheat (Triticum aestivum); experiment: Test A preemergence, wheat; details: 125 g ai/ha, 0 to 100 scale, 10 days
[13] = test system: sedge, umbrella (small-flower umbrella sedge, Cyperus difformis); experiment: Test B flooded paddy test, sedge, umbrella; details: 250 g ai/ha, Flood; visually evaluated after 10 to 14 days
Procedure, shortened: as §2

[14] = test system: horseweed (Erigeron canadensis); experiment: Test A postemergence, horseweed; details: 10 days
Text: as §3, §4

[15] = test system: ducksalad (Heteranthera limosa); experiment: Test B flooded paddy test, ducksalad; details: 250 g ai/ha, Flood; visually evaluated after 10 to 14 days
Procedure, shortened: as §2

[16] = test system: blackgrass (Alopecurus myosuroides); experiment: Test A postemergence, blackgrass; details: 10 days
Procedure, shortened: as §1

[17] = test system: blackgrass (Alopecurus myosuroides); experiment: Test A preemergence, blackgrass; details: 0 to 100 scale, 10 days
Text: as §3, §4

[18] = test system: goosegrass (Eleusine indica); experiment: Test A preemergence, goosegrass; details: 0 to 100 scale, 10 days
Text: as §3, §4

[19] = test system: wheat (Triticum aestivum); experiment: Test A postemergence, wheat; details: 10 days
Procedure, shortened: as §1

[20] = test system: goosegrass (Eleusine indica); experiment: Test A postemergence, goosegrass; details: 10 days
Text: as §3, §4

[21] = test system: palmer amaranth (pigweed, palmer, Amaranthus palmeri); experiment: Test A preemergence, palmer amaranth; details: 0 to 100 scale, 10 days
Text: as §3, §4

soybean (Glycine max) [22] = experiment: Test A preemergence, soybean; details: 0 to 100 scale, 10 days
Text: as §3, §4

soybean (Glycine max) [23] = experiment: Test A postemergence, soybean; details: 10 days
Text: as §3, §4

kochia (Bassia scoparia) [24] = experiment: Test A postemergence, kochia; details: 10 days
Procedure, shortened: as §1

rice (Oryza sativa) = experiment: Test B flooded paddy test, rice; details: 250 g ai/ha, Flood; visually evaluated after 10 to 14 days
Procedure, shortened: as §2

[25] = test system: oat, wild (wild oat, Avena fatua); experiment: Test A postemergence, oat, wild; details: 10 days
Text: as §3, §4

[26] = test system: foxtail, giant (giant foxtail, Setaria faberi); experiment: Test A preemergence, foxtail, giant; details: 0 to 100 scale, 10 days
Procedure, shortened: as §1

[27] = test system: ryegrass, Italian (Italian ryegrass, Lolium multiflorum); experiment: Test A preemergence, ryegrass, Italian; details: 0 to 100 scale, 10 days
Procedure, shortened: as §1

[28] = test system: redroot pigweed (Amaranthus retroflexus); experiment: Test A postemergence, redroot pigweed; details: 10 days
Procedure, shortened: as §1

[29] = test system: redroot pigweed (Amaranthus retroflexus); experiment: Test A preemergence, redroot pigweed; details: 0 to 100 scale, 10 days
Procedure, shortened: as §1

[30] = test system: barnyardgrass (Echinochloa crus-galli); experiment: Test A preemergence, barnyardgrass; details: 10 days
Procedure, shortened: as §1

[31] = test system: barnyardgrass (Echinochloa crus-galli); experiment: Test A postemergence, barnyardgrass; details: 10 days
Procedure, shortened: as §1

[32] = test system: foxtail, green (green foxtail, Setaria viridis); experiment: Test A preemergence, foxtail, green; details: 0 to 100 scale, 10 days
Text: as §3, §4

[33] = test system: foxtail, green (green foxtail, Setaria viridis); experiment: Test A postemergence, foxtail, green; details: 10 days
Text: as §3, §4

[34] = 31 g ai/ha, postemergence, 0 to 100 scale (0 no effect, 100 complete control)
[35] = Postemergence, 125 g ai/ha, 0 to 100 scale

Cc1ccc2cc3ccc(F)cc3c(-c3c(OCOC(=O)N(C)C)c(C)nn(C)c3=O)c2c1 [Compound 16]
30: Plant response rating, Ragweed [11, 35] | Plant response rating, Soybean (soybean (Glycine max) [23]; [35])
60: Plant response rating, Pigweed, Palmer [5, 35] | Plant response rating, Kochia (kochia (Bassia scoparia) [24]; [34])
0: Plant response rating, Ryegrass, Italian [1, 34] | Plant response rating, Ryegrass, Italian [1, 35] | Plant response rating, Barnyardgrass (0 to 100 scale where 0 is no effect and 100 is complete control) [2] | Plant response rating, Corn (corn (Zea mays) [3]; 31 g ai/ha) | Plant response rating, Corn (corn (Zea mays) [3]; 125 g ai/ha) | Plant response rating, Galium [4, 34] | Plant response rating, Corn (corn (Zea mays) [6]; [34]) | Plant response rating, Corn (corn (Zea mays) [6]; [35]) | Plant response rating, Oat, Wild ([7]; 31 g ai/ha) | Plant response rating, Oat, Wild ([7]; 125 g ai/ha) | Plant response rating, Kochia (kochia (Bassia scoparia) [8]; 31 g ai/ha) | Plant response rating, Kochia (kochia (Bassia scoparia) [8]; 125 g ai/ha) | Plant response rating, Ragweed ([9]; 31 g ai/ha) | Plant response rating, Ragweed ([9]; 125 g ai/ha) | Plant response rating, Foxtail, Giant [10, 34] | Plant response rating, Wheat [12] | Plant response rating, Sedge, Umbrella (0 to 100 scale where 0 is no effect and 100 is complete control) [13] | Plant response rating, Ducksalad (0 to 100 scale where 0 is no effect and 100 is complete control) [15] | Plant response rating, Blackgrass [16, 34] | Plant response rating, Blackgrass [16, 35] | Plant response rating, Blackgrass ([17]; 31 g ai/ha) | Plant response rating, Blackgrass ([17]; 125 g ai/ha) | Plant response rating, Goosegrass ([18]; 31 g ai/ha) | Plant response rating, Goosegrass ([18]; 125 g ai/ha) | Plant response rating, Wheat [19, 34] | Plant response rating, Wheat [19, 35] | Plant response rating, Goosegrass [20, 34] | Plant response rating, Goosegrass [20, 35] | Plant response rating, Pigweed, Palmer ([21]; 125 g ai/ha) | Plant response rating, Soybean (soybean (Glycine max) [22]; 31 g ai/ha) | Plant response rating, Soybean (soybean (Glycine max) [22]; 125 g ai/ha) | Plant response rating, Rice (0 to 100 scale where 0 is no effect and 100 is complete control) (rice (Oryza sativa)) | Plant response rating, Oat, Wild [25, 34] | Plant response rating, Oat, Wild [25, 35] | Plant response rating, Foxtail, Giant ([26]; 31 g ai/ha) | Plant response rating, Foxtail, Giant ([26]; 125 g ai/ha) | Plant response rating, Ryegrass, Italian ([27]; 31 g ai/ha) | Plant response rating, Ryegrass, Italian ([27]; 125 g ai/ha)
10: Plant response rating, Ragweed [11, 34] | Plant response rating, Horseweed [14, 34] | Plant response rating, Horseweed [14, 35] | Plant response rating, Pigweed, Palmer ([21]; 31 g ai/ha) | Plant response rating, Soybean (soybean (Glycine max) [23]; [34])
80: Plant response rating, Kochia (kochia (Bassia scoparia) [24]; [35])
20: Plant response rating, Foxtail, Giant [10, 35]
50: Plant response rating, Galium [4, 35]
100: Plant response rating, Pigweed, Palmer [5, 34]

Cc1cc(Cl)c2ccc(F)cc2c1-c1c(OCOC(=O)C(C)(C)C)c(C)nn(C)c1=O [Compound 30]
35: Plant response rating, Rice (0 to 100 scale where 0 is no effect and 100 is complete control) (rice (Oryza sativa))
40: Plant response rating, Barnyardgrass (0 to 100 scale where 0 is no effect and 100 is complete control) [2] | Plant response rating, Blackgrass [16, 34]
0: Plant response rating, Corn (corn (Zea mays) [6]; [34]) | Plant response rating, Barnyardgrass ([30]; 31 g ai/ha, 0 to 100 scale)
50: Plant response rating, Barnyardgrass [31, 35]
75: Plant response rating, Ducksalad (0 to 100 scale where 0 is no effect and 100 is complete control) [15]
80: Plant response rating, Ryegrass, Italian [1, 34] | Plant response rating, Pigweed, Redroot [28, 34] | Plant response rating, Pigweed, Redroot ([29]; 31 g ai/ha) | Plant response rating, Barnyardgrass ([30]; 125 g ai/ha, 0 to 100 scale (0 no effect, 100 complete control)) | Plant response rating, Ragweed ([9]; 31 g ai/ha) | Plant response rating, Blackgrass [16, 35] | Plant response rating, Foxtail, Green [33, 35]
20: Plant response rating, Kochia (kochia (Bassia scoparia) [8]; 31 g ai/ha) | Plant response rating, Kochia (kochia (Bassia scoparia) [8]; 125 g ai/ha) | Plant response rating, Ragweed [11, 34] | Plant response rating, Barnyardgrass [31, 34] | Plant response rating, Foxtail, Green ([32]; 31 g ai/ha) | Plant response rating, Wheat [19, 34]
90: Plant response rating, Pigweed, Redroot [28, 35] | Plant response rating, Ragweed ([9]; 125 g ai/ha)
100: Plant response rating, Ryegrass, Italian [1, 35] | Plant response rating, Galium [4, 34] | Plant response rating, Galium [4, 35] | Plant response rating, Pigweed, Redroot ([29]; 125 g ai/ha) | Plant response rating, Ragweed [11, 35] | Plant response rating, Sedge, Umbrella (0 to 100 scale where 0 is no effect and 100 is complete control) [13] | Plant response rating, Foxtail, Green ([32]; 125 g ai/ha) | Plant response rating, Ryegrass, Italian ([27]; 31 g ai/ha) | Plant response rating, Ryegrass, Italian ([27]; 125 g ai/ha)
10: Plant response rating, Corn (corn (Zea mays) [6]; [35]) | Plant response rating, Kochia (kochia (Bassia scoparia) [24]; [34])
30: Plant response rating, Foxtail, Green [33, 34] | Plant response rating, Kochia (kochia (Bassia scoparia) [24]; [35])
60: Plant response rating, Wheat [19, 35]
